Data reported in PMC8561388 (mBio, 2021).
Where two headings read alike, the source gives them in different places.

Assays:
[1] = system: wild-type A75/17-CDV strain (A75^neon); type: cell-based, canine distemper virus
[2] = system: attenuated OP-CDV strain (OP^neon/nLucP); experiment: microbe, parasite or virus in culture; type: cell-based, canine distemper virus
[3] = system: wild-type A75/17-CDV (A75^neon/nLucP); experiment: microbe, parasite or virus in culture; type: cell-based; conditions: canine distemper virus, Vero-cSLAM cells
[4] = system: MeV (Edm); experiment: microbe, parasite or virus in culture; type: cell-based; conditions: Measles morbillivirus
[5] = system: MeV (ICB); experiment: microbe, parasite or virus in culture; type: cell-based; conditions: Measles morbillivirus, NCI-H358 cells
[6] = system: PIV-5^neon/nLucP; experiment: microbe, parasite or virus in culture; type: cell-based, parainfluenza virus type 5; conditions: PIV-5, Vero cells
[7] = system: RSV-GFP; experiment: microbe, parasite or virus in culture; type: cell-based, respiratory syncytial virus; conditions: HEp-2 cells, plaque reduction
[8] = system: VSV; type: cell-based, vesicular stomatitis virus; conditions: Vero cells
[9] = Cell viability (cytotoxicity), Vero-cNectin-4; type: cell-based; conditions: monkey, Vero-cNectin-4 cells
[10] = Cell viability (cytotoxicity), Vero; type: cell-based; conditions: monkey, Vero cells
[11] = Cell viability (cytotoxicity), MDCK; type: cell-based, Canine; conditions: dog, MDCK cells
[12] = Cell viability (cytotoxicity), P114; type: cell-based, Canine; conditions: dog, P114 cells
[13] = Cell viability (cytotoxicity), Bsr-T7; type: cell-based; conditions: hamster, Bsr-T7 cells
[14] = Cell viability (cytotoxicity), NCI-H358; type: cell-based; conditions: human, NCI-H358 cells
[15] = Cell viability (cytotoxicity), HEp-2; type: cell-based; conditions: human, HEp-2 cells
[16] = biological target: CDV polymerase complex (Canine distemper virus, UniProt P06940+P24658); experiment: cell-based; type: cell-based; conditions: for effect on minigenome luciferase activity (RdRp complex activity): compound 1 10 μM, compound 3 50 μM, Bsr-T7 cells, 48 h
[17] = system: MeV polymerase complex; type: cell-based, measles virus
[18] = system: virions (OP^neon/nLucP); experiment: Virucidal effect; type: cell-based, canine distemper virus; conditions: 1 h at 4°C, then dilution to noninhibitory concentration, Vero-cSLAM
Method: The virus-compound mixtures were then diluted 10-fold, thereby reaching noninhibitory concentrations. […] Upon inoculation of the diluted mixtures in Vero-cSLAM cells, the viral infectivity was assessed.
OP^neon/nLucP (MOI of 4) was added in a plate containing or not each compound and incubated for 60 min at 4°C. Afterward, the virus and compound mixture was diluted to a noninhibitory drug concentration and added to a monolayer of Vero-cSLAM cells. After 24 h, luminescence was measured using the Nano-Glo live cell assay system (Promega).

[19] = system: OP^neon/nLucP; experiment: Time-of-addition assay; type: cell-based, canine distemper virus; conditions: 10 μM, compounds added after 20 h of infection, readout 48 h
Method: To this end, Vero-cSLAM cells were treated with compound 1 at the time of infection or at distinct time points postinfection. In this set of experiments, two previously characterized compounds (compound 3 and ERDRP-0519 [Fig. 1A]) targeting two distinct stages of the viral life cycle (entry and replication, respectively) were added as controls.
Vero-cSLAM cells (96-well plate format) were infected with OP^neon/nLucP at an MOI of 0.04, in the presence of compound 3G (final concentration, 30 μM), ERDRP-0519 (final concentration, 10 μM), or ZHAWO9045 (final concentration 10 μM) added at the indicated time points. Control cells were infected in the presence of equal amounts of DMSO. At 48 h postinfection, luminescence was measured using the Nano-Glo live cell assay system (Promega).

[20] = system: CDV-induced membrane fusion between effector and target cells; experiment: Quantitative cell-to-cell fusion assay; type: cell-based; conditions: exclusively at high concentrations
Source text: It is assumed that small molecules at high concentrations may lead to aggregation effects or nonspecific binding.
Measurement of membrane fusion between effector and target cells in presence of increasing concentration of either compound 3 or 1. […] Download FIG S4, TIF file, 3.0 MB.

[21] = system: Vero-cSLAM cells; conditions: 42 h incubation, flow cytometry
[22] = in vitro; conditions: monkey, Vero-cSLAM cells
[23] = system: Vero-cSLAM cells; experiment: Cell viability (cytotoxicity), Vero-cSLAM
[24] = biological target: membrane-anchored OP-CDV F-protein (Canine distemper virus, UniProt P12569); experiment: Heat shock resistance of prefusion F conformation (flow cytometry); conditions: heat shock 65°C; compound 3 75 μM, compound 1 10 μM
[25] = system: rNiV-EGFP; experiment: microbe, parasite or virus in culture; type: cell-based, Nipah virus; conditions: Henipavirus nipahense
[26] = Cell viability (cytotoxicity), PGSA745-EFNB2; type: cell-based; conditions: hamster, PGSA745-EFNB2 cells
[27] = canine distemper virus, 24 h, read-out: IC50 (CDV), Table S5, full list, Vero-cSLAM, CDV OP^neon/nLuc, 24 h postinfection, interval in brackets
[28] = canine distemper virus, BSR-T7, in Mesocricetus auratus, CDV (OP), Bsr-T7 cells (hamster)
[29] = canine distemper virus, CDV (OP), Vero-cSLAM cells
[30] = canine distemper virus, MDCK, in Canis lupus familiaris, CDV (OP), MDCK cells (canine)
[31] = canine distemper virus, Vero, CDV (OP), Vero cells
[32] = canine distemper virus, in Canis lupus familiaris, CDV (OP), P114 cells (canine)
[33] = human respiratory syncytial virus, HEp-2, RSV
[34] = canine distemper virus, 24 h, Table S3, aromatic heterocycles and N-alkylated aminothiazoles, Vero-cSLAM, CDV OP^neon/nLuc, 24 h postinfection, interval in brackets

Sequence of CDV polymerase complex (P24658 whole entry): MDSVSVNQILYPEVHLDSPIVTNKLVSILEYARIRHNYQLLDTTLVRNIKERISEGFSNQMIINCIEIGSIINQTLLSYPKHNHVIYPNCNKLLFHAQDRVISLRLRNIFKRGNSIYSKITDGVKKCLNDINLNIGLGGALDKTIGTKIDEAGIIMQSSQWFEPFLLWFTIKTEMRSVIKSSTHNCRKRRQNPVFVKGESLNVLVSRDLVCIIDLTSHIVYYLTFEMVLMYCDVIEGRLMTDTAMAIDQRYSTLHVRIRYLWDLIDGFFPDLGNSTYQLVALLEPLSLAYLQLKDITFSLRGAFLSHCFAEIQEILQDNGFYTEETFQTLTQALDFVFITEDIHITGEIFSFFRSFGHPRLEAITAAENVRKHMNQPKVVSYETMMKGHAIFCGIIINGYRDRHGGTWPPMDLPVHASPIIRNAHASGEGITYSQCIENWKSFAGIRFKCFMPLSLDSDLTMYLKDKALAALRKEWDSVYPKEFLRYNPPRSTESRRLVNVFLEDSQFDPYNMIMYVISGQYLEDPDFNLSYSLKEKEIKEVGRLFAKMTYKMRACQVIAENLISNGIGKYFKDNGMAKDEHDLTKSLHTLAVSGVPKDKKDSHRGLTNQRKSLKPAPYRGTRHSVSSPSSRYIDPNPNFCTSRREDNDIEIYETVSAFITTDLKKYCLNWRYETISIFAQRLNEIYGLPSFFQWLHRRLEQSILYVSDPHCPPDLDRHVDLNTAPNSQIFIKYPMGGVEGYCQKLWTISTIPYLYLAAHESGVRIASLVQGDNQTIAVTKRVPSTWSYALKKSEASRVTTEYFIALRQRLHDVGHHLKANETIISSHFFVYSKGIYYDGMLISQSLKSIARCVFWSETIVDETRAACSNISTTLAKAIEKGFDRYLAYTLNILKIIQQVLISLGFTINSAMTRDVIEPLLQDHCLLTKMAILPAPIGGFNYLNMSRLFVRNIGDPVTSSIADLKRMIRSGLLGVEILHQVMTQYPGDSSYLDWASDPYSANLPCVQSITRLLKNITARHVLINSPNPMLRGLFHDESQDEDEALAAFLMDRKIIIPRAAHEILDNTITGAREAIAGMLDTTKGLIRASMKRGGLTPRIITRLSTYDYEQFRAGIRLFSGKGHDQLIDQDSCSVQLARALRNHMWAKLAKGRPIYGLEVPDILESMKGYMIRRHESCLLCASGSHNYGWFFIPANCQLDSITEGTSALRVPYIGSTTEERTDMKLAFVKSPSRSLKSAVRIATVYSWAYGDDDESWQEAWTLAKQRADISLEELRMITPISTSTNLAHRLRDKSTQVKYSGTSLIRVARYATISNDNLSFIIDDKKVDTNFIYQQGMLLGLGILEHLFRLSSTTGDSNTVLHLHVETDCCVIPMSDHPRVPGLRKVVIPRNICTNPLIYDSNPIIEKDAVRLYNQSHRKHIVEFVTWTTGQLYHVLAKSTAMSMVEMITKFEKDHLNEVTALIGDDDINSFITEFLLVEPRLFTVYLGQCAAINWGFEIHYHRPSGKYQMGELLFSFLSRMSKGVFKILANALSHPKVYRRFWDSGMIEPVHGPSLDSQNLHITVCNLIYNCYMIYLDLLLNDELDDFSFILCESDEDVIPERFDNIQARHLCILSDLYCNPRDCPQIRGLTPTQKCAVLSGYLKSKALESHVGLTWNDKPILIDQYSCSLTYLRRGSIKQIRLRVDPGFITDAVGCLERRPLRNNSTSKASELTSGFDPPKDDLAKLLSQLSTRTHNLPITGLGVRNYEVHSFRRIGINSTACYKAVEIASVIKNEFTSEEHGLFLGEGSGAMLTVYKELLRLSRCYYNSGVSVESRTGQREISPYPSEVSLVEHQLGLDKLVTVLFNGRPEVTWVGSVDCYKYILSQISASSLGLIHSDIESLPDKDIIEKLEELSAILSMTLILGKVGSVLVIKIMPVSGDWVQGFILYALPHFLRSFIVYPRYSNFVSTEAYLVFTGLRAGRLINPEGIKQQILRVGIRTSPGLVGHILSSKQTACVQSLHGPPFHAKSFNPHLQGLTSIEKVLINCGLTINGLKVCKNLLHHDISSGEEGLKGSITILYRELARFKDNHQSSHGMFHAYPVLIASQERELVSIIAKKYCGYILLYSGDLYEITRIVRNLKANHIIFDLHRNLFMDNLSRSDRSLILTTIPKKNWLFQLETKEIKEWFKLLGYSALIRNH
Sequence of CDV polymerase complex (P06940 whole entry): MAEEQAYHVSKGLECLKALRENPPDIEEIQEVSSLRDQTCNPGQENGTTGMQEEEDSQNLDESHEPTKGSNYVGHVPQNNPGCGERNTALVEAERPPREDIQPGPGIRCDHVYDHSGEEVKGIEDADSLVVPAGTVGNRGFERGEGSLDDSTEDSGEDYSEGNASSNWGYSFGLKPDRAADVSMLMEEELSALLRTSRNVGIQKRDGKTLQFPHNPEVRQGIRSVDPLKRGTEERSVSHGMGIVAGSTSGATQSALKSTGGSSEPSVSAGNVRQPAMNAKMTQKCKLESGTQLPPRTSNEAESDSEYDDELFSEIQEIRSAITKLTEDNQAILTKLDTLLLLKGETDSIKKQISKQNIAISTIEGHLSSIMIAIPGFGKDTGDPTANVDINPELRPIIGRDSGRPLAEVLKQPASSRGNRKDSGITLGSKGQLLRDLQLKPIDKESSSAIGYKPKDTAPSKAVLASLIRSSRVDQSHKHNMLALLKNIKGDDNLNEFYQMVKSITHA
Sequence of membrane-anchored OP-CDV F-protein (P12569 136-224): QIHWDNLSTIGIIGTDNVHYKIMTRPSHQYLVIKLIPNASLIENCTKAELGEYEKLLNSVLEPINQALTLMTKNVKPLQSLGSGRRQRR
Sequence of membrane-anchored OP-CDV F-protein (P12569 225-662): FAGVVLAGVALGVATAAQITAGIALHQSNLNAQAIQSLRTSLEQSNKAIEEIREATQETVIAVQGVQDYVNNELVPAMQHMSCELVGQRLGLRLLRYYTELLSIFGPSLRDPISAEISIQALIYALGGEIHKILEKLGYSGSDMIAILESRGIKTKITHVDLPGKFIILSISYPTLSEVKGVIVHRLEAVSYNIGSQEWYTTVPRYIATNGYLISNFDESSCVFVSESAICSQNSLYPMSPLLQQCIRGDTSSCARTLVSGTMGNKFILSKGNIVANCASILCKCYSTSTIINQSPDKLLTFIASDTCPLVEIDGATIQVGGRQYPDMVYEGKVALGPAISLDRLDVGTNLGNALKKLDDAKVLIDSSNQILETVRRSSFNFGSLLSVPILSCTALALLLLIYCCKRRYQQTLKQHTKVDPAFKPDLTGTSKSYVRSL

Row | Structure (SMILES) | IC50 [2, 27] | IC50 [2, 28] | IC50 [2, 29] | IC50 [2, 30] | IC50 [2, 31] | IC50 [2, 32] | IC50 [3] | IC50 ([6]; parainfluenza virus 5, Vero) | IC50 [7, 33] | CC50 [10] | CC50 [11] | CC50 [12] | CC50 [15] | effect on minigenome luciferase activity (RdRp complex activity) [16] | inhibitory activity after 10-fold dilution of virus-compound mixture (virucidal activity) [18] | concentration at which impact on cell cycle progression (G1 arrest) is statistically significant [21] | CC50 [22] | stabilizing effect on prefusion F-trimers [24] | IC50 [2, 34] | other results
1 | Cn1nc(C(F)(F)F)cc1C(=O)Nc1ccc(S(=O)(=O)N2CCCC[C@H]2CCN2CCOCC2)cc1 [ERDRP-0519, reference compound] |  |  |  |  |  |  |  |  |  |  |  |  |  |  |  |  |  |  |  | tolerated dose at the end of adaptation ([1]; stepwise adaptation of A75/17-CDV): ≥ 30 µM
2 | CC1(C)Cc2cccc(OCC(=O)Nc3nc4ccccc4s3)c2O1 [compound 1] | 530 nM | ~7000 nM | ~450 nM | 30000 nM | 400 nM | 2600 nM | ~700 nM | ~7 µM | ~6 µM | 46 µM | 99 µM | 57 µM | 110 µM | sufficient to significantly inhibit the luciferase activity | entirely lost its inhibitory activity | 30 µM | 52 µM | did not |  | IC50 ([2]; CDV (OP), Bsr-T7 cells (hamster)): 7300 nM; IC50 ([2]; canine distemper virus, 24 h, Vero-cSLAM, CDV OP^neon/nLuc, luciferase 24 h postinfection): 520 nM; IC50 ([2]; canine distemper virus, CDV (OP), Vero-cNectin-4 cells): 430 nM; IC50 ([2]; canine distemper virus, read-out: IC50 values, summary for MeV and CDV): 200 to 700 nM; IC50 ([4]; NCI-H358): 520 nM; IC50 ([4]; Vero): 250 nM; IC50 [5]: 370 nM; IC50 [6]: 7.2 µM; IC50 ([7]; RSV): 5.9 µM; antiviral activity against VSV [8]: did not display any activity; CC50 [9]: 43 µM; CC50 [13]: 50 µM; CC50 [14]: 50 µM; inhibition at 10 µM ([16]; BSR-T7, read-out: inhibition of polymerase activity in the minigenome assay): ~50%; effect on MeV polymerase activity (minigenome) [17]: inhibition of MeV polymerase activity was recorded; emergence of viral resistance ([1]; 83-day study, four separate replicates): did not induce any detectable viral resistance; time-of-addition inhibition profile [19]: acted like ERDRP-0519; effect on membrane fusion activity [20]: enhance fusion activity; CC50 [23]: ~50 µM
3 | CN(C(=O)COc1cccc2c1OC(C)(C)C2)c1nc2c(s1)CCCC2 [compound 2] |  | 12 nM | 2.6 nM | 65 nM | 3 nM | 19 nM | 3.2 nM | 0.015 µM | 0.031 µM | 52 µM | 87 µM | 65 µM | 51 µM |  |  | 1 µM | 54 µM |  | 8.4 nM | IC50 ([2]; Vero-cSLAM, CDV OP^neon/nLuc, luciferase 24 h postinfection): single-digit nanomolar; IC50 [25]: 80 nM; CC50 [26]: 80 µM
4 | N#Cc1cccc(NC(=O)Cc2ccccc2)c1 [compound 3, reference compound] | 26000 nM |  | 8000 nM |  |  |  | 6000 nM |  |  |  |  |  |  | luciferase activity remained similar to that for vehicle | still efficiently prevented viral infectivity even after the dilution step |  | 130 µM | strong stabilizing effect |  | 
5 | C#CCCCN(C(=O)COc1cccc2c1OC(C)(C)C2)c1nc2ccccc2s1 [compound 23] |  |  |  |  |  |  |  |  |  |  |  |  |  |  |  |  |  |  | 270 nM | 
